In patent US20260216347A1, “Substituted Imidazo-Based Compounds as Ligand Directed Degraders of IRAK3” (Celgene Corporation, priority 2022, published 2026):

Legend:
IRAK3 [1] = biological target: T1, IRAK3 (Homo sapiens, UniProt Q9Y616); test: IRAK endogenous HTRF degradation assay (Total-IRAK3 HTRF kit); type: cell-based; details: overnight incubation, lowest percentage of protein remaining
T1 construct: IRAK Endogenous HTRF Degradation Assay; endogenous in cells
T1 sequence (Q9Y616 1-596): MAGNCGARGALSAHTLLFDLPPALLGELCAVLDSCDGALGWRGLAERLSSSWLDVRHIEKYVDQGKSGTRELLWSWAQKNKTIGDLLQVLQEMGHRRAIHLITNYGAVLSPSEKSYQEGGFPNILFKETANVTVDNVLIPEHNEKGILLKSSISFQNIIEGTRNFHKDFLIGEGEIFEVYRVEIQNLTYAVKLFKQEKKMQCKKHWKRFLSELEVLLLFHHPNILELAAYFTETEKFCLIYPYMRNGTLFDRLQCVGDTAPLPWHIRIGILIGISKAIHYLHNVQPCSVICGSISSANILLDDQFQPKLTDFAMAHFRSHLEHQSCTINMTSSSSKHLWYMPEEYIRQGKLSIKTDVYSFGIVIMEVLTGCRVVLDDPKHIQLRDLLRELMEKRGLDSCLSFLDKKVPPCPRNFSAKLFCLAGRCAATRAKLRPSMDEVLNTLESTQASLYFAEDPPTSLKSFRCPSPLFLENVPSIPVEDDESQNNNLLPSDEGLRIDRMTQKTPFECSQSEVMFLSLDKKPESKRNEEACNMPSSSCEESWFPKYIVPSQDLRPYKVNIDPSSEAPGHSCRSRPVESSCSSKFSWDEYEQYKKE
Summary of the method: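 Cells (~50 k) incubated overnight with 3-fold serial dilutions of compound, then lysed; total IRAK3 read by HTRF (665/615 nm ratio ×10,000), normalized to DMSO as 100%. EC50 from four-parameter logistic fit; Dmax = 100 − Ymin (lowest % protein remaining); DC50 = concentration giving 50% degradation.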

IRAK3 [2] = biological target: T1, IRAK3; test: IRAK3 biochemical binding assay (LanthaScreen Eu Kinase Binding, TR-FRET)
Summary of the method: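 TR-FRET tracer-displacement binding with 10 nM IRAK3, 2 nM Eu-anti-GST antibody and 10 nM tracer in 50 mM HEPES pH 7.4, MgCl2, 1 mM EGTA, 0.01% Brij-35. Compounds in 3-fold dilutions, 1 h at room temperature. 665/615 nm ratio gave % inhibition; IC50 and Hill slope from dose-response fit.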

Row | IRAK3 HTRF degradation Ymin (IRAK3 [1]) [%] | IC50 (IRAK3 [2]) [nM] | SMILES
1 | 13 | 2.8 | Cc1cc(-c2cnc(Nc3cnn([C@H]4CC[C@@H](CN5CCN(c6ccc(C7CCC(=O)NC7=O)cc6)CC5)CC4)c3)c3nccn23)c(F)cc1F (relative stereo) [Compound 71, 3-(4-(4-(((cis)-4-(4-((5-(2,4-difluoro-5-methylphenyl)imidazo[1,2-a]pyrazin-8-yl)amino)-1H-pyrazol-1-yl)cyclohexyl)methyl)piperazin-1-yl)phenyl) piperidine-2,6-dione]
2 | 27 | 5 | Cc1cccc(-c2cnc(Nc3cnn(C4CCN(CC(=O)N5CCN(c6ccc7c(c6)C(=O)N(C6CCC(=O)NC6=O)C7=O)CC5)CC4)c3)c3nccn23)c1 (stereo not drawn) [Compound 1, 2-(2,6-dioxopiperidin-3-yl)-5-(4-(2-(4-(4-((5-(m-tolyl)imidazo[1,2-a]pyrazin-8-yl)amino)-1H-pyrazol-1-yl)piperidin-1-yl)acetyl)piperazin-1-yl)isoindoline-1,3-dione]
3 | 18 | 4.2 | Cc1cccc(-c2cnc(Nc3cnn(C4CCN(CCN5CCN(c6ccc7c(c6)C(=O)N(C6CCC(=O)NC6=O)C7=O)CC5)CC4)c3)c3nccn23)c1 (stereo not drawn) [Compound 2, 2-(2,6-dioxopiperidin-3-yl)-5-(4-(2-(4-(4-((5-(m-tolyl)imidazo[1,2-a]pyrazin-8-yl)amino)-1H-pyrazol-1-yl)piperidin-1-yl)ethyl)piperazin-1-yl)isoindoline-1,3-dione]
4 | 11 | 1.3 | Cc1cccc(-c2cnc(Nc3cnn(C4CCN(CCCCN5CCN(c6ccc(C7CCC(=O)NC7=O)cc6)CC5)CC4)c3)c3nccn23)c1 (stereo not drawn) [Compound 3, 3-(4-(4-(4-(4-(4-((5-(m-tolyl)imidazo[1,2-a]pyrazin-8-yl)amino)-1H-pyrazol-1-yl)piperidin-1-yl)butyl)piperazin-1-yl)phenyl) piperidine-2,6-dione]
5 | 17 | 2.3 | Cc1cccc(-c2cnc(Nc3cnn(C4CCN(CCCN5CCN(c6ccc(C7CCC(=O)NC7=O)cc6)CC5)CC4)c3)c3nccn23)c1 (stereo not drawn) [Compound 4, 3-(4-(4-(3-(4-(4-((5-(m-tolyl)imidazo[1,2-a]pyrazin-8-yl)amino)-1H-pyrazol-1-yl)piperidin-1-yl)propyl)piperazin-1-yl)phenyl) piperidine-2,6-dione]
6 | 23 | 1 | Cc1cc(-c2cnc(Nc3cnn(C4CCN(CC(=O)N5CCN(c6ccc7c(c6)C(=O)N(C6CCC(=O)NC6=O)C7=O)CC5)CC4)c3)c3nccn23)c(F)cc1F (stereo not drawn) [Compound 6, 5-(4-(2-(4-(4-((5-(2,4-difluoro-5-methylphenyl)imidazo[1,2-a]pyrazin-8-yl)amino)-1H-pyrazol-1-yl)piperidin-1-yl)acetyl)piperazin-1-yl)-2-(2,6-dioxopiperidin-3-yl)isoindoline-1,3-dione]
7 | 12 | 1.5 | Cc1cc(-c2cnc(Nc3cnn(C4CCN(CCN5CCN(c6ccc(C7CCC(=O)NC7=O)cc6)C[C@@H]5C)CC4)c3)c3nccn23)c(F)cc1F (stereo partly drawn) [Compound 7, 3-(4-((S)-4-(2-(4-(4-((5-(2,4-difluoro-5-methylphenyl)imdazo [1,2-a]pyrazin-8-yl)amino)-1H-pyrazol-1-yl)piperidin-1-yl)ethyl)-3-methylpiperazin-1-yl)phenyl) piperidine-2,6-dione]
8 | 9 | 1.3 | Cc1cc(-c2cnc(Nc3cnn(C4CCN(CCN5CCN(c6ccc(C7CCC(=O)NC7=O)cc6)CC5)CC4)c3)c3nccn23)c(F)cc1F (stereo not drawn) [Compound 8, 3-(4-(4-(2-(4-(4-((5-(2,4-difluoro-5-methylphenyl)imidazo[1,2-a]pyrazin-8-yl)amino)-1H-pyrazol-1-yl)piperidin-1-yl)ethyl)piperazin-1-yl)phenyl)piperidine-2,6-dione]
9 | 14 | 1.1 | Cc1cc(-c2cnc(Nc3cnn(C4CCN(CCN5CCN(c6ccc(C7CCC(=O)NC7=O)cc6)C[C@H]5C)CC4)c3)c3nccn23)c(F)cc1F (stereo partly drawn) [Compound 9, 3-(4-((R)-4-(2-(4-(4-((5-(2,4-difluoro-5-methylphenyl)imdazo [1,2-a]pyrazin-8-yl)amino)-1H-pyrazol-1-yl)piperidin-1-yl)ethyl)-3-methylpiperazin-1-yl)phenyl) piperidine-2,6-dione]
10 | 14 | 0.51 | Cc1cc(-c2cnc(Nc3cnn(C4CCN(CC(=O)N5CCN(c6ccc7c(c6)CN(C6CCC(=O)NC6=O)C7=O)CC5)CC4)c3)c3nccn23)c(F)cc1F (stereo not drawn) [Compound 10, 3-(5-(4-(2-(4-(4-((5-(2,4-difluoro-5-methylphenyl)imidazo[1,2-a]pyrazin-8-yl)amino)-1H-pyrazol-1-yl)piperidin-1-yl)acetyl)piperazin-1-yl)-1-oxoisoindolin-2-yl)piperidine-2,6-dione]
11 | 12 | 8.9 | Cc1cc(-c2cnc(Nc3cnn([C@H]4CC[C@H](CCN5CCN(c6ccc(C7CCC(=O)NC7=O)cc6)CC5)CC4)c3)c3nccn23)c(F)cc1F (stereo partly drawn) [Compound 11, 3-(4-(4-(2-((trans)-4-(4-((5-(2,4-difluoro-5-methylphenyl)imidazo[1,2-a]pyrazin-8-yl)amino)-1H-pyrazol-1-yl)cyclohexyl)ethyl)piperazin-1-yl)phenyl)piperidine-2,6-dione]
12 | 13 | 2 | Cc1cc(-c2ccc(Nc3cnn(C4CCN(CCN5CCN(c6ccc(C7CCC(=O)NC7=O)cc6)CC5)CC4)c3)c3nccn23)c(F)cc1F (stereo not drawn) [Compound 12, 3-(4-(4-(2-(4-(4-((5-(2,4-difluoro-5-methylphenyl)imdazo [1,2-a]pyridin-8-yl)amino)-1H-pyrazol-1-yl)piperidin-1-yl)ethyl)piperazin-1-yl)phenyl) piperidine-2,6-dione]
13 | 11 | 1.3 | Cc1cc(-c2cnc(Nc3cnn(C4CCN(CCN5[C@H](C)CN(c6ccc(C7CCC(=O)NC7=O)cc6)C[C@@H]5C)CC4)c3)c3nccn23)c(F)cc1F (stereo partly drawn) [Compound 13, 3-(4-((3S,5R)-4-(2-(4-(4-((5-(2,4-difluoro-5-methylphenyl)imdazo [1,2-a]pyrazin-8-yl)amino)-1H-pyrazol-1-yl)piperidin-1-yl)ethyl)-3,5-dimethylpiperazin-1-yl)phenyl) piperidine-2,6-dione]
14 | 13 | 4.3 | Cc1cc(-c2cnc(Nc3cnn([C@H]4CC[C@@H](CCN5CCN(c6ccc(C7CCC(=O)NC7=O)cc6)CC5)CC4)c3)c3nccn23)c(F)cc1F (stereo partly drawn) [Compound 14, 3-(4-(4-(2-((cis)-4-(4-((5-(2,4-difluoro-5-methylphenyl)imidazo[1,2-a]pyrazin-8-yl)amino)-1H-pyrazol-1-yl)cyclohexyl)ethyl)piperazin-1-yl)phenyl) piperidine-2,6-dione]
15 | 45 | 1.5 | Cc1cccc(-c2cnc(Nc3cnn(C4CCN(CC(=O)N5CCN(c6ccc7c(c6)C(=O)N(C6CCC(=O)NC6=O)C7)CC5)CC4)c3)c3nccn23)c1 (stereo not drawn) [Compound 16, 3-(1-oxo-6-(4-(2-(4-(4-((5-(m-tolyl)imidazo[1,2-a]pyrazin-8-yl)amino)-1H-pyrazol-1-yl)piperidin-1-yl)acetyl)piperazin-1-yl)isoindolin-2-yl)piperidine-2,6-dione]
16 | 15 | 1.3 | Cc1cc(-c2cnc(Nc3cnn(C4CCN(CC(=O)N5CCN(c6ccc(C7CCC(=O)NC7=O)cc6)CC5)CC4)c3)c3nccn23)c(F)cc1F (stereo not drawn) [Compound 17, 3-(4-(4-(2-(4-(4-((5-(2,4-difluoro-5-methylphenyl)imidazo[1,2-a]pyrazin-8-yl)amino)-1H-pyrazol-1-yl)piperidin-1-yl)acetyl)piperazin-1-yl)phenyl)piperidine-2,6-dione]
17 | 20 | 0.5 | Cc1cc(-c2cnc(Nc3cnn(C4CCN(CC(=O)N5CCN(c6ccc7c(c6)C(=O)N(C6CCC(=O)NC6=O)C7)CC5)CC4)c3)c3nccn23)c(F)cc1F (stereo not drawn) [Compound 18, 3-(6-(4-(2-(4-(4-((5-(2,4-difluoro-5-methylphenyl)imidazo[1,2-a]pyrazin-8-yl)amino)-1H-pyrazol-1-yl)piperidin-1-yl)acetyl)piperazin-1-yl)-1-oxoisoindolin-2-yl)piperidine-2,6-dione]
18 | 18 | 1.8 | Cc1cccc(-c2cnc(Nc3cnn(C4CCN(CC(=O)N5CCN(c6ccc7c(c6)CN(C6CCC(=O)NC6=O)C7=O)CC5)CC4)c3)c3nccn23)c1 (stereo not drawn) [Compound 19, 3-(1-oxo-5-(4-(2-(4-(4-((5-(m-tolyl)imidazo[1,2-a]pyrazin-8-yl)amino)-1H-pyrazol-1-yl)piperidin-1-yl)acetyl)piperazin-1-yl)isoindolin-2-yl)piperidine-2,6-dione]
